{
  "source": "patent US20180360972A1",
  "about": "“THERAPEUTIC COMPOUNDS” (REGENTS OF THE UNIVERSITY OF MINNESOTA, priority 2017, published 2018)",
  "key": {"mMC4R": {"target": "T1, mMC4R (Mus musculus, UniProt P56450)", "T1 construct": "expressed in transfected cells", "assay": "125I-NDP-MSH competitive binding", "settings": "displacement of 125I-NDP-MSH; receptor subtype not printed at b283; read-out: binding affinity IC50", "experimental": "NDP-MSH was radioiodinated with Na^125I utilizing the chloramine T procedure (26). […] HEK293 cells stably expressing wildtype mMC1R or mMC4R were maintained as described above. Transiently transfected HEK293 cells were used for binding experiments on the mMC3R. Transfection was performed in 10 cm plates using FuGene6 transfection reagent (15 μL/plate; Promega), Opti-Mem medium (1.7 mL/plate; Invitrogen), and mMC3R-Flag DNA (3.33 μg/plate) two days prior to binding experiment. One or two days preceding the competition experiments, cell were plated into 12-well tissue culture plates (Corning Life Sciences, Cat. # 353043) and grown to 90-100% confluency. On the day of the assay, media was removed gently. The cells were treated with a freshly diluted aliquot of non-labeled compound at the in well concentration being tested (ranging from 10^−12 to 10^−4 M as appropriate) in assay buffer (DMEM and 0.1% BSA) and a constant amount of ^1251-NDP-MSH (100,000 cpm/well) and were incubated at 37° C. for one hour. […] The radioactivity was quantified on WIZARD^2 Automatic Gamma Counter (PerkinElmer). […] The non-specific values used for calculations was radioactivity of the 10^−6 M unlabeled NDP-MSH. Data was analyzed by a nonlinear regression method using the PRISM program (v4.0; GraphPad Inc.) to generate and calculate dose-response curves and IC50 values."}, "wild type mice": {"test_system": "wild type mice", "assay": "ICV administration, conventional cages, wild type mice", "type": "in vivo", "experimental": "(§1) All experiments were performed in accordance with the Institutional Animal Care and Use Committee (IACUC) at the University of Minnesota. Female and male littermates with mixed background from C57BL/6J and 129/Sv inbred strains were 8 weeks old at the time of surgeries. Mice were individually housed after surgeries and for the remainder of the experiment. Mice were maintained on a 12 hr light/dark cycle (Lights off was at 11:59 AM) in a temperature controlled room (23-25° C.). In the nocturnal feeding paradigm, mice had free access to normal chow (Harlan Teklad 2018 Diet: 18.6% crude protein, 6.2% crude fat, 3.5% crude fiber, with energy density of 3.1 kcal/g). […] Mice had free access to tap water throughout all the experiments. The cannula placement validation studies and conventional cage studies were performed in standard mouse polycarbonate conventional cages provided by University of Minnesota's Research Animal Resources (RAR). Weekly cage changes were conducted by lab research staff.\n(§2) Mice were anesthetize with a mixture of ketamine (100 mg/kg) and xylazine (5 mg/kg) and were positioned in a stereotaxic apparatus (David Kopf Instruments). A 26-gauge cannula (Cat# 81C315GS4SPC; PlasticsOne, Roanoke, Va.) was inserted in the lateral cerebral ventricle at the coordinates 1.0 mm lateral and 0.46 mm posterior to bregma and 2.3 mm ventral to the skull (Franklin, K. B. J. & Paxinos, G. The Mouse Brain in Stereotaxic Coordinates. (Academic Press, 1997)).\n(§3) Each mouse was administered hPYY and saline on different days following a crossover design in the nocturnal feeding paradigm. In the nocturnal paradigm, compound is administered 2 hours prior to lights out with free access to food and water throughout the entire experiment. There was at least a 4 day washout period between administration to ensure that normal feeding patterns and body weight returned. Food intake and body weight were manually measured 2, 4, and 6 hours after hPYY or saline administration. A mouse with a validated cannula placement for the TSE cage experiments consumed at least 1.0 g more after hPYY administration compared to saline administration 4 hours post-administration.\n(§4) As stated above, conventional cage experiments were performed in standard mouse polycarbonate conventional cages. […] All experiments followed a cross-over paradigm in which the mouse received saline and compound on different days with a washout period in between each treatment. Statistical analysis was performed using SPSS V23 software (IBM) using a multivariate general linear model followed by a Bonferroni's post hoc test. Results are presented as Mean±SEM. Statistically significant was considered p<0.05."}, "male wild type mice": {"test_system": "male wild type mice", "type": "in vivo", "settings": "for energy expenditure vs saline / food intake vs saline / respiratory exchange ratio (RER) vs saline / water intake vs saline: 5 nmols CJL-5-58 or 5 nmols each CJL-1-14 and CJL-1-80", "experimental": "as §1, §2, §3, §4"}, "male MC3RKO mice": {"test_system": "male MC3RKO mice", "assay": "ICV administration, TSE metabolic cages, male MC3RKO mice", "type": "in vivo", "experimental": "as §1, §2, §4\nIn order to more clearly understand the effects of the biased agonism at the MC4R, the effects of administration of CJL-5-58 was explored in MC3R knockout (KO) mice and MC4RKO mice. […] Adverse reactions included two mice dying after the 5 nmol dose. […] The large error in activity may serve as an indication of toxicity. It is currently difficult to decipher whether the adverse reactions observed are due to paradigm effects, genotype difference, or compound toxicity."}, "[1]": {"target": "mMC4R-NanoLuc and mMC4R-HaloTag homodimer (Mus musculus, UniProt P56450)", "assay": "NanoBRET ligand-dependent modulation of BRET signal", "settings": "ligand at 10 μM"}, "[2]": {"settings": "fasting-refeeding, time after administration"}, "[3]": {"settings": "nocturnal free-feeding paradigm, 5.0 nmol ICV"}, "[4]": {"settings": "nocturnal paradigm, 1 nmol dose"}},
  "note": "Entries after “also recorded” stand apart in the source; their conditions may differ. Like-named read-outs stand apart in the source and are kept apart here.",
  "data": [
    {"smiles": "CC(=O)N[C@@H](Cc1cnc[nH]1)C(=O)N[C@H](Cc1ccccc1)C(=O)N[C@@H](CCCNC(=N)N)C(=O)N[C@@H](Cc1c[nH]c2ccccc12)C(=O)NCCCOCCOCCOCCCNC(=O)COCC(=O)N[C@@H](Cc1cnc[nH]1)C(=O)N[C@H](Cc1ccc2ccccc2c1)C(=O)N[C@@H](CCCNC(=N)N)C(=O)N[C@@H](Cc1c[nH]c2ccccc12)C(N)=O", "note": "[CJL-5-58, Ac-His-DPhe-Arg-Trp-(PEDG20)-His-DNal(2′)-Arg-Trp-NH2]", "values": [
      {"measurement": "IC50", "setting": "mMC4R", "value": 14, "unit": "nM"},
      {"measurement": "adverse effects", "setting": "wild type mice; ICV 2.5 nmols and 5.0 nmols, conventional cages", "value": "no signs of adverse effects"},
      {"measurement": "change in body weight vs saline, female mice", "setting": "wild type mice; fasting-refeeding", "value": "Only the 2 hour time point was significant"},
      {"measurement": "change in body weight vs saline, male mice", "setting": "wild type mice; fasting-refeeding", "value": "significant difference was observed in the change in weight of the male mice after compound administration at time points 2, 4, 6, 8, and 24 hours"},
      {"measurement": "food intake", "setting": "wild type mice; fasting-refeeding after 22 hour fast, ICV dose response", "value": "dose dependent decrease in food intake; also recorded: reduce food intake"},
      {"measurement": "food intake vs saline, female mice (time points of significant decrease)", "setting": "wild type mice; [2]", "value": "2 and 4 hours"},
      {"measurement": "food intake vs saline, male mice", "setting": "wild type mice; [2]", "value": "Significant decreased food intake was observed at 2, 4, 6, and 8 hours; also recorded: Significant decreases in food intake were observed at 2, 4, 6, and 8 hours"},
      {"measurement": "body weight vs saline", "setting": "wild type mice; [3]", "value": "no statistically significant effect"},
      {"measurement": "food intake vs saline", "setting": "wild type mice; [3]", "value": "no statistically significant effect"},
      {"measurement": "RER, CJL-5-58 vs co-administration of CJL-1-14 and CJL-1-80", "setting": "male wild type mice; fasting paradigm", "value": "significant differences in RER at the 2, 3, 6, and 7 hour time points"},
      {"measurement": "activity vs saline", "setting": "male wild type mice; fasting paradigm", "value": "no significant differences were observed in activity"},
      {"measurement": "energy expenditure, CJL-5-58 vs co-administration of CJL-1-14 and CJL-1-80", "setting": "male wild type mice; fasting paradigm", "value": "significantly higher for CJL-5-58 at the 13 and 17 hour time points"},
      {"measurement": "food intake, CJL-5-58 vs co-administration of CJL-1-14 and CJL-1-80", "setting": "male wild type mice; fasting paradigm", "value": "significant differences in the food intake at 2 and 4 hour time point"},
      {"measurement": "number of mice that died", "setting": "male wild type mice; fasting paradigm", "value": "one"},
      {"measurement": "energy expenditure reached after treatment", "setting": "male wild type mice; fasting paradigm, 5 nmol dose, baseline c.a. 12", "value": "17 to 19", "unit": "kcal/h/kg"},
      {"measurement": "energy expenditure vs saline", "setting": "male wild type mice; fasting paradigm", "value": "significantly lower for the first 3 hours post-treatment; also recorded: increased energy expenditure is observed 15, 17, and 21 hours after compound administration"},
      {"measurement": "food intake vs saline", "setting": "male wild type mice; fasting paradigm", "value": "decrease in food intake up to 12 hours after administration"},
      {"measurement": "respiratory exchange ratio (RER) vs saline", "setting": "male wild type mice; fasting paradigm", "value": "significantly lower RER was observed for the first 9 hours and at 17 hours"},
      {"measurement": "water intake vs saline", "setting": "male wild type mice; fasting paradigm", "value": "decrease in water intake was observed with 5 nmols of CJL-5-58 at time points 4, 6, 8, 10, and 12 hours"},
      {"measurement": "number of adverse reactions", "setting": "male wild type mice; fasting paradigm, within 30 minutes of injection", "value": "four"},
      {"measurement": "time to recovery from adverse reactions", "setting": "male wild type mice; mice experiencing adverse reactions", "value": "< 1", "unit": "h"},
      {"measurement": "activity vs saline", "setting": "male wild type mice; nocturnal paradigm", "value": "increase in activity was observed during the first 5 hours after administration"},
      {"measurement": "any parameter, CJL-5-58 vs co-administration of CJL-1-14 and CJL-1-80", "setting": "male wild type mice; nocturnal paradigm", "value": "no significant differences were observed for any parameter"},
      {"measurement": "number of adverse reactions", "setting": "male wild type mice; nocturnal paradigm", "value": 2},
      {"measurement": "number of mice that died", "setting": "male wild type mice; nocturnal paradigm", "value": "one"},
      {"measurement": "energy expenditure vs saline", "setting": "male wild type mice; nocturnal paradigm", "value": "increase in energy expenditure was observed 5, 13, 15, and 16 hours after treatment"},
      {"measurement": "food intake vs saline", "setting": "male wild type mice; nocturnal paradigm", "value": "no significant effect was observed"},
      {"measurement": "respiratory exchange ratio (RER) vs saline", "setting": "male wild type mice; nocturnal paradigm", "value": "significantly lowered RER values only until 2 hours after administration"},
      {"measurement": "water intake vs saline", "setting": "male wild type mice; nocturnal paradigm", "value": "no difference in water intake was observed"},
      {"measurement": "RER vs saline", "setting": "male MC3RKO mice; fasting-refeeding, 0.5 nmol", "value": "significant increase in RER at time point 24 hours"},
      {"measurement": "other parameters vs saline", "setting": "male MC3RKO mice; fasting-refeeding, 0.5 nmols", "value": "No other parameters were significantly affected"},
      {"measurement": "RER vs saline", "setting": "male MC3RKO mice; fasting-refeeding, 1 nmol", "value": "significantly reduced at 2 and 3 hours"},
      {"measurement": "energy expenditure vs saline", "setting": "male MC3RKO mice; fasting-refeeding, 1 nmol", "value": "Significant reductions in energy expenditure were observed in the fasting paradigm at time points 1 and 2 hours"},
      {"measurement": "food intake vs saline", "setting": "male MC3RKO mice; fasting-refeeding, 1.0 nmol", "value": "Significant reduction in food intake was observed at 2 and 4 hour time points"},
      {"measurement": "adverse reactions / toxicity", "setting": "male MC3RKO mice; fasting-refeeding, 1.0 or 0.5 nmols", "value": "some minor signs of adverse reactions; also recorded: Some toxicity was observed"},
      {"measurement": "adverse reactions", "setting": "male MC3RKO mice; [4]", "value": "No adverse reactions were observed"},
      {"measurement": "effects on measured parameters vs saline", "setting": "male MC3RKO mice; [4]", "value": "no significant effects were observed"},
      {"measurement": "RER vs saline", "setting": "male MC3RKO mice; nocturnal paradigm, 2.5 nmol", "value": "significant increased RER was observed 18, 19, and 24 hours"},
      {"measurement": "energy expenditure vs saline", "setting": "male MC3RKO mice; nocturnal paradigm, 2.5 nmol", "value": "significant reduced 1-8 and 13 hours post-treatment"},
      {"measurement": "energy expenditure vs saline", "setting": "male MC3RKO mice; nocturnal paradigm, 5 nmol", "value": "significantly reduced at time points 1-3 hrs"},
      {"measurement": "food intake vs saline", "setting": "male MC3RKO mice; nocturnal paradigm, 5 nmol", "value": "decreased at time points 2-12 hours"},
      {"measurement": "number of mice dying", "setting": "male MC3RKO mice; nocturnal paradigm, 5 nmol dose", "value": "two"},
      {"measurement": "activity vs saline", "setting": "male MC3RKO mice; nocturnal paradigm, 5 nmols", "value": "trended towards being lowered (p=0.069)"},
      {"measurement": "RER vs saline", "setting": "male MC3RKO mice; nocturnal paradigm, 5 nmols (dose not restated for CJL-5-58)", "value": "significantly decreased at time points 1-5, 8 and 12 hours"},
      {"measurement": "adverse reactions / toxicity", "setting": "male MC3RKO mice; nocturnal paradigm, 2.5 to 5 nmols", "value": "adverse reactions were also observed at the 2.5 and 5 nmol concentrations; also recorded: Some toxicity was observed"},
      {"measurement": "reduction in BRET signal compared to basal signal", "setting": "[1]", "value": "~8", "unit": "%"}
    ]}
  ]
}
